Measurements taken from patent US20230111558A1, “Composition for Preventing and Treating Heart Dysfunction and its Application Thereof” (21ST CENTURY HERBS & HEALTH, priority 2021, published 2023).

Experiments:
Type in all cases: in vivo
[1] = system: LDH; assay: Lactate dehydrogenase (LDH) in ISO-induced zebrafish; conditions: ISO=0.02 mg/L, CoQ10=4.0 mg/L, 24 hours; vs ISO group
Procedure: (§1) Three-day post fertilization wild-type zebrafish with normal development are used for the experiment and divided them into 4 groups, namely the control group, the ISO group (ISO=0.02 mg/L), the TC group (CoQ10=4.0 mg/L), and the CoQ10 group (CoQ10=4.0 mg/L), 30 in each group; The zebrafish in the ISO group are immersed in the ISO solution prepared with embryo culture water for 24 hours, then taken out and recorded their heart rate under a microscope. The signs of successful ISO-induced myocardial injury in zebrafish are a significant decrease in heart rate and the formation of pericardial edema. The zebrafish in the TC and CoQ10 groups are respectively immersed in embryo breeding water containing ISO and TC or CoQ10, incubated for 24 hours and then taken out for photography under a microscope.
(§2) The detection of SOD and LDH are carried out according to the instructions of the kits, which are purchased from NanJing JianCheng Bioengineering Institute with the article numbers of A001-3, A020-2 and A019-2-1, respectively.

[2] = system: brain natriuretic peptide (BNP); assay: BNP gene expression by RT-PCR in ISO-induced zebrafish; conditions: ISO=0.02 mg/L, CoQ10=4.0 mg/L, 24 hours; vs ISO group
Procedure: as §1
(§3) Zebrafish RNA extraction, reverse transcription and quantitative amplification are performed in accordance with the instructions of the kit obtained from Nanjing Vazyme Biotech Co., Ltd, the article numbers are RC101, R223-01 and Q711-02.
(§4) ANP refers to atrial natriuretic peptide, BNP refers to brain natriuretic peptide, GAPDH refers to glyceraldehyde 3-phosphate dehydrogenase.

[3] = system: H/R zebrafish; assay: Cardiac function of hypoxia-reoxygenation (H/R) zebrafish; conditions: CoQ10=4.0 mg/L, reoxygenation 24 hours, vs H/R group
Procedure: (§5) The zebrafish experiments are conducted in accordance to the internationally accepted standards. The wild type zebrafish strain AB is provided by the Developmental Biology Platform of Chongqing Medical University. Using the Shanghai Haisheng zebrafish aquatic ecosystem, the temperature in the fish tank is 28.5° C., the water temperature is 28-30° C., the salinity is 0.03%-0.04%, the pH is 7.2-7.6, and the photoperiod is 14 h light-10 h dark.
Three-day post fertilization wild-type of zebrafish with normal development are used for the experiment. The zebrafish are divided into 4 groups, namely the control group, the H/R (Hypoxia-reoxygenation) group, the TC group (CoQ10=4.0 mg/L), and the CoQ10 group (CoQ10=4.0 mg/L), n=30. Fill the beaker with circulating water for fish breeding, and then fill the water with high purity nitrogen. At the same time, use dissolved oxygen meter to detect the oxygen concentration in the water. Stop filling nitrogen until the oxygen concentration is stable at 0.00 mg/L. The air in the bevel glass bottle is discharged with nitrogen, and the prepared hypoxic water is put into the bevel glass bottle. The juvenile zebrafish of 3 days are put into the bottle, the cap is tightened, the glass bottle is placed into a plastic sealed bag, and then the sealed bag is vacuumed to ensure that no air enters. The end point of hypoxia is that the young fish sank to the bottom and remained motionless for 1 minute. At the same time, the zebrafish bent its body, turned the glass bottle upside down and then put it flat. The zebrafish sank head down and vertically. Then, the zebrafish are taken out and put into aquaculture water or medicine solution prepared with aquaculture water. After reoxygenation for 24 hours, the heart function indexes of zebrafish are examined.
(§6) First, the zebrafish are placed at room temperature and counted the number of heart beats within 15 seconds under a microscope. Then, the heart rate is obtained by multiplying it by 4. Then the zebrafish are placed in a petri dish, fixed with 1% low-melting agar, and held in a lateral position (with the eyes on top of the segments and the tail at the same level as the body). Fifty-eight images are generated by using an inverted fluorescence microscope for five consecutive shots. The diastolic and systolic images are selected, and the length (a) and width (b) of the ventricles are measured. The volume (V) of the ventricles is calculated with the ellipsoidal volume formula, and the surface area (S) of the ventricles is calculated with the elliptical area formula. The stroke-volume (SV), ejection fraction (EF), and fractional area change (FAC), cardiac output (CO) of zebrafish are calculated. Ventricular volume (V)=4/3π(a/2) (b/2)^2; Stroke-volume (SV)=Vdiastolic−Vsystolic; Ejection Fraction (EF)=(Vdiastole−Vsystole)/Vdiastole; Ventricular surface area (S)=(a/2) (b/2)π; Fractional Area Change (FAC)=(Sdiastolic−Ssystolic)/Sdiastolic; Cardiac Output (CO)=Cardiac volume*heart rate.

[4] = system: SOD; assay: Superoxide dismutase (SOD) in ISO-induced zebrafish; conditions: ISO=0.02 mg/L, CoQ10=4.0 mg/L, 24 hours; vs ISO group
Procedure: as §1, §2

[5] = system: atrial natriuretic peptide (ANP); assay: ANP gene expression by RT-PCR in ISO-induced zebrafish; conditions: ISO=0.02 mg/L, CoQ10=4.0 mg/L, 24 hours; vs ISO group
Procedure: as §1, §3, §4

[6] = system: ISO-induced zebrafish; assay: Cardiac function of ISO-induced zebrafish myocardial injury model; conditions: ISO=0.02 mg/L, CoQ10=4.0 mg/L, 24 hours; vs ISO group
Procedure: as §5, §1, §6

[7] = system: ISO-induced zebrafish; assay: ISO-induced zebrafish pericardial edema (pericardial height); conditions: ISO=0.02 mg/L, CoQ10=4.0 mg/L, 24 hours; vs ISO group
Procedure: as §1
Images are used to measure the height of the pericardium, the distance between the front of the yolk sac and the top of the pericardium, as shown by the arrow in FIG. 3(A).

## COC1=C(OC)C(=O)C(C/C=C(\C)CC/C=C(\C)CC/C=C(\C)CC/C=C(\C)CC/C=C(\C)CC/C=C(\C)CC/C=C(\C)CC/C=C(\C)CC/C=C(\C)CCC=C(C)C)=C(C)C1=O [CoQ10, Coenzyme Q10]
[1]
  activity of LDH: reduced the activity of LDH, the result is insignificant
[2]
  excessive expression of BNP: significantly reduce
[3]
  cardiac output (CO): significantly increase
  ejection fraction (EF): significantly increase
  fractional area change (FAC): significantly increase
  heart rate: no significant effect
  stroke volume (SV): significantly increase
[4]
  activity of SOD: no significantly effect
[5]
  excessive expression of ANP: significantly reduce
[6]
  cardiac output (CO): significantly increase
  ejection fraction (EF): significantly increase
  fractional area change (FAC): significantly increase
  heart rate: no significant effect
  stroke volume (SV): significantly increase
[7]
  pericardial edema (pericardial height): no effect
